# Laboratory results: patent US12446584B2, “Termiticide composition and methods for treating termites” (ADAMA MAKHTESHIM LTD., priority 2013, dated 2025)
# Like-named read-outs stand apart in the source and are kept apart here.
# Tests used:
# Assay type in all cases: in vivo
# [1] = test system: Eastern subterranean termites (Reticulitermes flavipes); assay: Thin plate bioassay
# Method: (§1) A laboratory study was conducted, using recently collected R. flavipes and C. formosanus. Thin plate bioassays were assembled using 0.6 cm glass and 0.6 cm clear Lexan. A sheet of 20.3×66 cm glass was used for the bottom. Two pieces of 2.5×61 cm glass were laid along the long edges, and two pieces of […]. Each arena had 450 g of screened sand evenly applied, and moistened with deionized water to help hold it in place during construction of the arenas. Fisher brand tongue depressors, cut in half, were used as a food source for the termites, and placed at one end of the arena. Prior to adding the Lexan top sheets, 0.6 cm holes were drilled at one end, and three 0.6 cm treatment apertures were drilled equally spaced apart at the center line. One 8 cm Petri dish with a 0.6 cm hole drilled in the bottom was lined up with the hole at the end of the top sheet, and glued down. Glue was allowed to dry for 72 hours. Large binder clips were used to hold the arena together.
# (§2) Termiticide solutions were prepared as follows: Fipronil 0.017%; Fipronil 0.03%; Imidacloprid 0.05%; Imi-Fip 0.067% (Imidacloprid 0.05%, Fipronil 0.017%); and Untreated Control (water only). Ten ml of each finished solution of termiticide were applied to each arena: each of the three treatment apertures received 3.3 ml of termiticide. The treatments were allowed to dry for 24 hours, and the treatment apertures were covered with a 2.5×7.5 cm microscope slide. In each Petri dish, 500 worker and 15 soldier termites were added, using either R. flavipes or C. formosanus. Each treatment was replicated four times. Data regarding distance tunneled and mortality were collected daily for eight days. Data was analyzed using Analysis of Variance (ANOVA) and means were separated by Tukey's HSD (Honest Significant Difference test (IBM SPSS v 19).
# [2] = test system: Formosan subterranean termites (Coptotermes formosanus); assay: Thin plate bioassay
# Method: as §1, §2
# [3] = test system: Eastern Subterranean Reticulitermes flavipes termites; assay: Transfer effects among nestmates (donor/recipient Petri dish arenas); details: Reticulitermes flavipes, donors treated with 50 ppm
# Method: (§3) The purpose of this study was to determine whether there is transference of […] among nestmates of subterranean termites. Arenas for this study consisted of a 15 cm Petri dish. […] Donor and untreated marked control termites were marked using RustOleum® Marking Paint, using methodology described by Keefer et al. 2012.
# (§4) Two untreated soldier termites for each species were added to each arena to simulate colony dynamics. Post-treatment observations for mortality were made at 4 h and then daily through day 7.
# [4] = test system: Formosan Coptotermes formosanus termites; assay: as above; details: donors treated with 50 ppm; for mortality at 50 ppm: Coptotermes formosanus
# Method: as §3, §4
# [5] = 0.017% solution, 1 day post-treatment
# [6] = 0.017% solution, 2 days post-treatment
# [7] = 0.017% solution, 3 days post-treatment
# [8] = 0.017% solution, 4 days post-treatment
# [9] = 0.017% solution, 5 days post-treatment
# [10] = 0.017% solution, 6 days post-treatment
# [11] = 0.017% solution, 7 days post-treatment
# [12] = 0.017% solution, 8 days post-treatment
# [13] = 0.03% solution, 1 day post-treatment
# [14] = 0.03% solution, 2 days post-treatment
# [15] = 0.03% solution, 3 days post-treatment
# [16] = 0.03% solution, 4 days post-treatment
# [17] = 0.03% solution, 5 days post-treatment
# [18] = 0.03% solution, 6 days post-treatment
# [19] = 0.03% solution, 7 days post-treatment
# [20] = 0.03% solution, 8 days post-treatment
# [21] = 4 h, donor:recipient ratio 1:19, 4 h, read-out: Mean total % mortality of donors and recipients
# [22] = 4 h, donor:recipient ratio 5:15, 4 h, read-out: Mean total % mortality of donors and recipients
# [23] = 4 h, donor:recipient ratio 10:10, 4 h, read-out: Mean total % mortality of donors and recipients
# [24] = 4 h, donor:recipient ratio 15:5, 4 h, read-out: Mean total % mortality of donors and recipients
# [25] = 24 h, by treatment (all ratios), 1 d, read-out: Mean % mortality of donors and recipients
# [26] = 24 h, donor:recipient ratio 1:19, 1 d, read-out: Mean total % mortality of donors and recipients
# [27] = 24 h, donor:recipient ratio 5:15, 1 d, read-out: Mean total % mortality of donors and recipients
# [28] = 24 h, donor:recipient ratio 10:10, 1 d, read-out: Mean total % mortality of donors and recipients
# [29] = 24 h, donor:recipient ratio 15:5, 1 d, read-out: Mean total % mortality of donors and recipients
# [30] = 48 h, by treatment (all ratios), 2 d, read-out: Mean % mortality of donors and recipients
# [31] = 48 h, donor:recipient ratio 1:19, 2 d, read-out: Mean total % mortality of donors and recipients
# [32] = 48 h, donor:recipient ratio 5:15, 2 d, read-out: Mean total % mortality of donors and recipients
# [33] = 48 h, donor:recipient ratio 10:10, 2 d, read-out: Mean total % mortality of donors and recipients
# [34] = 48 h, donor:recipient ratio 15:5, 2 d, read-out: Mean total % mortality of donors and recipients
# [35] = 72 h, by treatment (all ratios), 3 d, read-out: Mean % mortality of donors and recipients
# [36] = 72 h, donor:recipient ratio 1:19, 3 d, read-out: Mean total % mortality of donors and recipients
# [37] = 72 h, donor:recipient ratio 5:15, 3 d, read-out: Mean total % mortality of donors and recipients
# [38] = 72 h, donor:recipient ratio 10:10, 3 d, read-out: Mean total % mortality of donors and recipients
# [39] = 72 h, donor:recipient ratio 15:5, 3 d, read-out: Mean total % mortality of donors and recipients
# [40] = 96 h, by treatment (all ratios), 4 d, read-out: Mean % mortality of donors and recipients
# [41] = 96 h, donor:recipient ratio 1:19, 4 d, read-out: Mean total % mortality of donors and recipients
# [42] = 96 h, donor:recipient ratio 5:15, 4 d, read-out: Mean total % mortality of donors and recipients
# [43] = 96 h, donor:recipient ratio 10:10, 4 d, read-out: Mean total % mortality of donors and recipients
# [44] = 96 h, donor:recipient ratio 15:5, 4 d, read-out: Mean total % mortality of donors and recipients
# [45] = 120 h, by treatment (all ratios), 5 d, read-out: Mean % mortality of donors and recipients
# [46] = 120 h, donor:recipient ratio 1:19, 5 d, read-out: Mean total % mortality of donors and recipients
# [47] = 120 h, donor:recipient ratio 5:15, 5 d, read-out: Mean total % mortality of donors and recipients
# [48] = 120 h, donor:recipient ratio 10:10, 5 d, read-out: Mean total % mortality of donors and recipients
# [49] = 120 h, donor:recipient ratio 15:5, 5 d, read-out: Mean total % mortality of donors and recipients
# [50] = 144 h, by treatment (all ratios), 6 d, read-out: Mean % mortality of donors and recipients
# [51] = 144 h, donor:recipient ratio 1:19, 6 d, read-out: Mean total % mortality of donors and recipients
# [52] = 144 h, donor:recipient ratio 5:15, 6 d, read-out: Mean total % mortality of donors and recipients
# [53] = 144 h, donor:recipient ratio 10:10, 6 d, read-out: Mean total % mortality of donors and recipients
# [54] = 144 h, donor:recipient ratio 15:5, 6 d, read-out: Mean total % mortality of donors and recipients
# [55] = 168 h, by treatment (all ratios), 7 d, read-out: Mean % mortality of donors and recipients
# [56] = 168 h, donor:recipient ratio 1:19, 7 d, read-out: Mean total % mortality of donors and recipients
# [57] = 168 h, donor:recipient ratio 5:15, 7 d, read-out: Mean total % mortality of donors and recipients
# [58] = 168 h, donor:recipient ratio 10:10, 7 d, read-out: Mean total % mortality of donors and recipients
# [59] = 168 h, donor:recipient ratio 15:5, 7 d, read-out: Mean total % mortality of donors and recipients
smiles,measurement,setting,value
"N#Cc1nn(-c2c(Cl)cc(C(F)(F)F)cc2Cl)c(N)c1[S+]([O-])C(F)(F)F [Fipronil, 5-amino-1-[2,6-dichloro-4-(trifluoromethyl)phenyl]-4-[(1-R,S)(trifluoromethyl)sulfinyl]-1H-pyrazole-3-carbonitrile]",Mean % mortality,[1]; [5],5.25 a %
same,Mean % mortality,[1]; [6],30.50 a %
same,Mean % mortality,[1]; [7],75.00 a %
same,Mean % mortality,[1]; [8],77.50 a %
same,Mean % mortality,[1]; [9],90.00 b %
same,Mean % mortality,[1]; [10],95.50 b %
same,Mean % mortality,[1]; [11],100.00 a %
same,Mean % mortality,[1]; [12],100.00 a %
same,Mean % mortality,[1]; [13],0.75 b %
same,Mean % mortality,[1]; [14],2.25 b %
same,Mean % mortality,[1]; [15],67.50a %
same,Mean % mortality,[1]; [16],70.00 a %
same,Mean % mortality,[1]; [17],90.00 b %
same,Mean % mortality,[1]; [18],100.00 a %
same,Mean % mortality,[1]; [19],100.00 a %
same,Mean % mortality,[1]; [20],100.00 a %
same,Mean % mortality,[2]; [5],1.37 a %
same,Mean % mortality,[2]; [6],8.62 b %
same,Mean % mortality,[2]; [7],15.00 a %
same,Mean % mortality,[2]; [8],30.60 a %
same,Mean % mortality,[2]; [9],72.20 a %
same,Mean % mortality,[2]; [10],72.20 c %
same,Mean % mortality,[2]; [11],83.50 b %
same,Mean % mortality,[2]; [12],100.00a %
same,Mean % mortality,[2]; [13],5.05 a %
same,Mean % mortality,[2]; [14],17.25ab %
same,Mean % mortality,[2]; [15],19.75 a %
same,Mean % mortality,[2]; [16],49.40 a %
same,Mean % mortality,[2]; [17],70.50 a %
same,Mean % mortality,[2]; [18],99.25 a %
same,Mean % mortality,[2]; [19],100.00 a %
same,Mean % mortality,[2]; [20],100.00a %
same,mortality at 50 ppm,"[3]; 4 h, by treatment (all ratios), 4 h, read-out: Mean % mortality of donors and recipients",3.75%
same,mortality at 50 ppm,[3]; [21],3.75%
same,mortality at 50 ppm,[3]; [22],5%
same,mortality at 50 ppm,[3]; [23],1.25%
same,mortality at 50 ppm,[3]; [24],5%
same,mortality at 50 ppm,[3]; [25],23.5%
same,mortality at 50 ppm,[3]; [26],10%
same,mortality at 50 ppm,[3]; [27],17.5%
same,mortality at 50 ppm,[3]; [28],17.5%
same,mortality at 50 ppm,[3]; [29],56.2%
same,mortality at 50 ppm,[3]; [30],57.2%
same,mortality at 50 ppm,[3]; [31],16.2%
same,mortality at 50 ppm,[3]; [32],53.8%
same,mortality at 50 ppm,[3]; [33],71.2%
same,mortality at 50 ppm,[3]; [34],87.5%
same,mortality at 50 ppm,[3]; [35],70.3%
same,mortality at 50 ppm,[3]; [36],22.5%
same,mortality at 50 ppm,[3]; [37],70%
same,mortality at 50 ppm,[3]; [38],88.8%
same,mortality at 50 ppm,[3]; [39],100%
same,mortality at 50 ppm,[3]; [40],72.8%
same,mortality at 50 ppm,[3]; [41],26.2%
same,mortality at 50 ppm,[3]; [42],72.5%
same,mortality at 50 ppm,[3]; [43],92.5%
same,mortality at 50 ppm,[3]; [44],100%
same,mortality at 50 ppm,[3]; [45],83.8%
same,mortality at 50 ppm,[3]; [46],52.5%
same,mortality at 50 ppm,[3]; [47],82.5%
same,mortality at 50 ppm,[3]; [48],100%
same,mortality at 50 ppm,[3]; [49],100%
same,mortality at 50 ppm,[3]; [50],98.1%
same,mortality at 50 ppm,[3]; [51],97.5%
same,mortality at 50 ppm,[3]; [52],95%
same,mortality at 50 ppm,[3]; [53],100%
same,mortality at 50 ppm,[3]; [54],100%
same,mortality at 50 ppm,[3]; [55],100%
same,mortality at 50 ppm,[3]; [56],100%
same,mortality at 50 ppm,[3]; [57],100%
same,mortality at 50 ppm,[3]; [58],100%
same,mortality at 50 ppm,[3]; [59],100%
same,mortality at 50 ppm,[4]; [21],0%
same,mortality at 50 ppm,[4]; [22],3.75%
same,mortality at 50 ppm,[4]; [23],17.5%
same,mortality at 50 ppm,[4]; [24],16.2%
same,mortality at 50 ppm,[4]; [25],50.6%
same,mortality at 50 ppm,[4]; [26],0%
same,mortality at 50 ppm,[4]; [27],2.5%
same,mortality at 50 ppm,[4]; [28],100%
same,mortality at 50 ppm,[4]; [29],100%
same,mortality at 50 ppm,[4]; [30],53.1%
same,mortality at 50 ppm,[4]; [31],8.75%
same,mortality at 50 ppm,[4]; [32],3.75%
same,mortality at 50 ppm,[4]; [33],100%
same,mortality at 50 ppm,[4]; [34],100%
same,mortality at 50 ppm,[4]; [35],59.7%
same,mortality at 50 ppm,[4]; [36],18.8%
same,mortality at 50 ppm,[4]; [37],20%
same,mortality at 50 ppm,[4]; [38],100%
same,mortality at 50 ppm,[4]; [39],100%
same,mortality at 50 ppm,[4]; [40],67.8%
same,mortality at 50 ppm,[4]; [41],25%
same,mortality at 50 ppm,[4]; [42],46.2%
same,mortality at 50 ppm,[4]; [43],100%
same,mortality at 50 ppm,[4]; [44],100%
same,mortality at 50 ppm,[4]; [45],82.5%
same,mortality at 50 ppm,[4]; [46],30%
same,mortality at 50 ppm,[4]; [47],100%
same,mortality at 50 ppm,[4]; [48],100%
same,mortality at 50 ppm,[4]; [49],100%
same,mortality at 50 ppm,[4]; [50],85.5%
same,mortality at 50 ppm,[4]; [51],30%
same,mortality at 50 ppm,[4]; [52],100%
same,mortality at 50 ppm,[4]; [53],100%
same,mortality at 50 ppm,[4]; [54],100%
same,mortality at 50 ppm,[4]; [55],90%
same,mortality at 50 ppm,[4]; [56],60%
same,mortality at 50 ppm,[4]; [57],100%
same,mortality at 50 ppm,[4]; [58],100%
same,mortality at 50 ppm,[4]; [59],100%
same,Mean % mortality of donors and recipients,"[4]; by treatment (all ratios), 4 h",9.37 b %
same,Mean % mortality of donors and recipients,"[4]; by treatment (all ratios), 4 h, listed as fipronil",1%
